How the values were obtained:
[1] = tested on: endogenous STAT3 target genes; experiment: qRT-PCR of endogenous STAT3 target genes; format: cell-based; settings: U266, INA-6 and HEL cells, 6 hours
Experimental: Total RNA was reverse transcribed using random hexamers and assayed by qRT-PCR as previously described (see, Grivennikov S I, Greten F R, & Karin M (2010) Immunity, inflammation, and cancer. Cell 140(6):883-899).
Gene expression was analyzed in triplicate, normalized by 18S rRNA, and expressed as mean±SEM. For gene expression microarrays, RNA was isolated by Trizol, purified further on RNeasy columns, and profiled using Affymetrix Human Gene 1.0 ST arrays (Affymetrix). Results were deposited under GEO Accession: GSE46575.
The mechanism by which atovaquone inhibits STAT3 was investigated. STAT3-luc reporter cells were pre-treated with atovaquone (20 μM) for 1 hr, and then stimulated with IL-6 (10 ng/ml) for 15 minutes, 30 minutes, 1 hours, or 2 hours. Since STAT3 transcriptional activity is critically dependent on tyrosine phosphorylation, Western blotting was performed to see if atovaquone affected STAT3 phosphorylation. […] Next, atovaquone was used to treat U266 (2.5 hours), HEL (6 hours), or INA-6 cells (4 hours). […] In U266 and INA-6 cells, the source of STAT3 activation is JAK-dependent IL-6 signaling, while in HEL cells, STAT3 is activated by mutant JAK2-V617F. Given that atovaquone inhibits constitutive STAT3 activation in cancer cells, it was asked whether atovaquone inhibits expression of endogenous STAT3 target genes in this context.

[2] = tested on: JAK family members (TYK2, JAK2); experiment: JAK auto-phosphorylation in cells (immunoprecipitation, Western blot); format: cell-based; settings: U266 15 μM 1 hour (TYK2); HEL 20 μM 6 hours (JAK2)
Experimental: Western blotting was performed as previously described (Battle T E, Arbiser J, & Frank D A (2005) The natural product honokiol induces caspase dependent apoptosis in B-cell chronic lymphocytic leukemia (B-CLL) cells. Blood 106(2):690-697). Antibodies to phospho-MAPK (9101), total MAPK (9102), phospho-Y705 STAT3 (9131), phospho-S6 (2215), total S6 (2217), phospho-4E-BP1 (9451), total 4E-BP1 (9644), total RSK (9355), phospho-S6K (9234, 85 used at 1:5000), total S6K (2708), phospho-eIF2α (9721, used at 1:1000), total eIF2α (5324), ATF4 (11815, used at 1:1000), PDGFRβ (3169), IGF1Rβ (9750), EGFR (2232), and HER2 (2242) were from Cell Signaling Technology. Phospho-RSK antibody was from R&D (AF889). Antibodies to total STAT3 (sc-482) and gp130 (sc-656, used at 1:1000) were from Santa Cruz Biotechnology. […] Cell viability was measured as ATP-dependent luminescence by Cell Titer Glo (Promega).
To understand how atovaquone inhibits STAT3 phosphorylation, the possibility that atovaquone decreases the kinase activity of JAKs, which are responsible for STAT3 activation in the systems previously tested was considered. To assess kinase activity, the extent of kinase auto-phosphorylation, which provides a cellular readout of kinase activity, was first analyzed. […] Due to technical limitations, tyrosine phosphorylation of other JAK family members was not detected in U266 cells. […]

U266 cells = experiment: Viability of U266 cells grown in patient serum; format: cell-based, human; settings: serum approximately 100 days following HSCT; compared to serum of patients receiving TMP-SMX; 4 days
Experimental: FIG. 43 contains a dot plot quantifying viability of U266 cancer cells grown for 4 days in serum from patients taking trimethoprim/sulfamethoxazole (TMP/SMX) or atovaquone; the indicated p-value was determined using the two-sample t-test.
The patient population consisted of AML patients treated with HSCT at the Dana-Farber Cancer Institute and who survived at least 150 days after transplant without relapse. Patients treated with atovaquone for at least 100 days within the 150-day period were classified as “high atovaquone” exposure, while the remaining patients were classified as “low atovaquone” exposure. […] To further investigate the anti-cancer activity of atovaquone in patients, serum samples were collected from patients approximately 100 days following HSCT who were being treated with either TMP-SMX or atovaquone. […] Atovaquone is a colored compound, and its presence in patient plasma is visibly noticeable.

O=C1C(O)=C([C@H]2CC[C@H](c3ccc(Cl)cc3)CC2)C(=O)c2ccccc21 [atovaquone, trans-2-[4-(4-chlorophenyl)cyclohexyl]-3-hydroxy-1,4-naphthalenedione]
expression of multiple STAT3 target genes [1]: substantially downregulated
auto-phosphorylation of JAK family members in cells [2]: inhibited the auto-phosphorylation of JAK family members
viability of U266 cells in serum from treated patients (U266 cells): reduced the viability of U266 cells

From US10130590B2, “Methods of treating cancer with atovaquone-related compounds” (DANA-FARBER CANCER INSTITUTE, INC., priority 2013, dated 2018)
